According to patent publication US11524940B1, “Inhibitors of cysteine proteases and methods of use thereof” (priority 2020, dated 2022):
Like-named read-outs stand apart in the source and are kept apart here.

Target: 229E Mpro (Human coronavirus 229E (HCoV-229E), UniProt P0C6X1)
Experiment: 229E Mpro activity
Assay type: biochemical
Protocol: Compounds are assayed using standard methods to assess compound activity and IC50. […] The assay buffer contains 20 mM of Tris-HCl (pH 7.3), 100 mM of NaCl, 1 mM of EDTA, 5mM of TCEP and 0.1% BSA.

Sequence of 229E Mpro (P0C6X1 2966-3267 limits assumed): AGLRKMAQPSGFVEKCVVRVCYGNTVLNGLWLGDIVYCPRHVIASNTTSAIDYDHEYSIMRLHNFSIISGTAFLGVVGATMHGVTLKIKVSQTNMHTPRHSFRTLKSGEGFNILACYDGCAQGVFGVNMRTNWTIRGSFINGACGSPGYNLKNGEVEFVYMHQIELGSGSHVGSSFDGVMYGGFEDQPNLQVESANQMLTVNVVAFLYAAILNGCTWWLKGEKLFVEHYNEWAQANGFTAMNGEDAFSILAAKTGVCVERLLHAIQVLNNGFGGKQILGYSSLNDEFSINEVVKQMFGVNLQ

| SMILES | EC50 (read-out: 229E Mpro EC50) | EC50 (229E Mpro EC50) |
| --- | --- | --- |
| COc1nccc2[nH]c(C(=O)N[C@@H](CC3CC3)C(=O)N[C@H](C#N)C[C@@H]3CCCNC3=O)cc12 [Compound 623, N-[(1S)-2-[[(1S)-1-cyano-2-[(3S)-2-oxo-3-piperidyl]ethyl]amino]-1-(cyclopropylmethyl)-2-oxo-ethyl]-4-methoxy-1H-pyrrolo[3,2-c]pyridine-2-carboxamide] | > 30 µM |  |
| N#C[C@H](C[C@@H]1CCCNC1=O)NC(=O)[C@H](CC1CC1)NC(=O)c1ccc(Cl)[nH]1 [Compound 864] | < 2 µM |  |
| COc1cccc2[nH]c(C(=O)N[C@@H](CC3CC3)C(=O)NC(C#N)CN3CCNC3=O)cc12 (mixture of isomers) [Compound 493, N-[(1S)-2-[[1-cyano-2-(2-oxoimidazolidin-1-yl)ethyl]amino]-1-(cyclopropylmethyl)-2-oxo-ethyl]-4-methoxy-1H-indole-2-carboxamide] | > 30 µM |  |
| COc1cccc2[nH]c(C(=O)N[C@@H](CC(C)C)C(=O)N[C@@H](C[C@@H]3CCNC3=O)C(=O)CO)cc12 [Compound 741, N-[(1S)-1-[[(1S)-3-hydroxy-2-oxo-1-[[(3S)-2-oxopyrrolidin-3-yl]methyl]propyl]carbamoyl]-3-methyl-butyl]-4-methoxy-1H-indole-2-carboxamide] | < 2 µM |  |
| COc1ccc2[nH]c(C(=O)N3CC4(CCCCC4)CC3C(=O)N[C@H](C#N)C[C@@H]3CCNC3=O)cc2c1Cl (single isomer, unassigned) [880 (Isomer 2)] | < 2 µM |  |
| COCCOCCOc1cccc2[nH]c(C(=O)N[C@@H](CC(C)(C)C)C(=O)N[C@H](C#N)C[C@@H]3CCCNC3=O)cc12 [Compound 876, N-[1-[[1-cyano-2-[(3S)-2-oxo-3-piperidyl]ethyl]carbamoyl]-3,3-dimethyl-butyl]-4-[2-(2-methoxyethoxy)ethoxy]-1H-indole-2-carboxamide] | < 2 µM |  |
| COc1ccc(Cl)c2[nH]c(C(=O)N[C@@H](CC(C)(C)C)C(=O)N[C@H](C#N)C[C@@H]3CCNC3=O)cc12 [Compound 892] | < 2 µM |  |
| N#Cc1cccc2[nH]c(C(=O)N[C@@H](CC3CC3)C(=O)N[C@H](C#N)C[C@@H]3CCCNC3=O)cc12 [Compound 858] | < 2 µM |  |
| N#C[C@H](C[C@@H]1CCCNC1=O)NC(=O)C1CC2(CCC2)CN1C(=O)c1cc2cccc(Cl)c2[nH]1 (single isomer, unassigned) [729 (Isomer 1)] | < 2 µM |  |
| N#C[C@H](C[C@@H]1CCCNC1=O)NC(=O)[C@H](CC1CC1)NC(=O)c1cc(Cl)c(Cl)[nH]1 [Compound 866, 4,5-dichloro-N-[(1S)-2-[[(1S)-1-cyano-2-[(3S)-2-oxo-3-piperidyl]ethyl]amino]-1-(cyclopropylmethyl)-2-oxo-ethyl]-1H-pyrrole-2-carboxamide] | < 2 µM |  |
| COc1cccc2[nH]c(C(=O)N[C@@H](CC(C)C)C(=O)N[C@@H](CC3CCNC3=O)C(C#N)NCc3ccccc3)cc12 (single isomer, unassigned) [507 (Isomer 2.1)] | < 2 µM |  |
| N#C[C@H](C[C@@H]1CCCNC1=O)NC(=O)[C@H](CC1CC1)NC(=O)c1cc2c(Cl)ccc(F)c2[nH]1 [Compound 826] | < 2 µM |  |
| COc1cc(Cl)cc2[nH]c(C(=O)N[C@@H](CC3CC3)C(=O)N[C@H](C#N)C[C@@H]3CCCNC3=O)cc12 [Compound 906, 6-chloro-N-[(1S)-2-[[(1S)-1-cyano-2-[(3S)-2-oxo-3-piperidyl]ethyl]amino]-1-(cyclopropylmethyl)-2-oxo-ethyl]-4-methoxy-1H-indole-2-carboxamide] | < 2 µM |  |
| COc1cc(Cl)c2[nH]c(C(=O)N[C@@H](CC(C)(C)C)C(=O)N[C@H](C#N)C[C@@H]3CCNC3=O)cc2c1 [Compound 894] | < 2 µM |  |
| COCCOCCOc1cccc2[nH]c(C(=O)NC(CC(C)(C)C)C(=O)NC(C#N)CC3CCCNC3=O)cc12 (single isomer, unassigned) [875 (Isomer 1)] | < 2 µM |  |
| COc1cccc2[nH]c(C(=O)N[C@@H](CC(C)C)C(=O)N[C@@H](C[C@@H]3CCNC3=O)C(C#N)Nc3ccccc3)cc12 (stereo partly drawn) [Compound 327, N-[(1S)-1-[[(1S)-2-anilino-2-cyano-1-[[(3S)-2-oxopyrrolidin-3-yl]methyl]ethyl]carbamoyl]-3-methyl-butyl]-4-methoxy-1H-indole-2-carboxamide] | < 2 µM |  |
| N#C[C@H](C[C@@H]1CCCNC1=O)NC(=O)[C@H](CC1CC1)NC(=O)c1cc2ccc(F)c(Cl)c2[nH]1 [Compound 828, 7-chloro-N-[(1S)-2-[[(1S)-1-cyano-2-[(3S)-2-oxo-3-piperidyl]ethyl]amino]-1-(cyclopropylmethyl)-2-oxo-ethyl]-6-fluoro-1H-indole-2-carboxamide] | < 2 µM |  |
| N#C[C@H](C[C@@H]1CCCNC1=O)NC(=O)[C@H](CC1CC1)NC(=O)c1cc2c(F)ccc(Br)c2[nH]1 [Compound 854] | < 2 µM |  |
| N#C[C@H](C[C@@H]1CCNC1=O)NC(=O)[C@@H](CC1CC1)N1CCc2cc[nH]c2C1=O [Compound 267A, (2R)-N-[(1S)-1-cyano-2-[(3S)-2-oxopyrrolidin-3-yl]ethyl]-3-cyclopropyl-2-(7-oxo-4,5-dihydro-1H-pyrrolo[2,3-c]pyridin-6-yl)propanamide] | > 30 µM |  |

| SMILES | EC50 (read-out: 229E Mpro EC50) | EC50 (229E Mpro EC50) |
| --- | --- | --- |
| CC(C)(C)OC(=O)Nc1cccn([C@H](CC2CC2)C(=O)N[C@H](C#N)C[C@@H]2CCNC2=O)c1=O (single isomer, unassigned) [505 (Isomer 1)] | > 30 µM |  |
| N#C[C@H](C[C@@H]1CCCNC1=O)NC(=O)[C@@H](CC1CC1)NC(=O)c1cc2cccc(Cl)c2[nH]1 [Compound 639A, 7-Chloro-N-[(1R)-2-[[(1S)-1-cyano-2-[(3S)-2-oxo-3-piperidyl]ethyl]amino]-1-(cyclopropylmethyl)-2-oxo-ethyl]-1H-indole-2-carboxamide] | < 2 µM |  |
| CC(C)(C)OC(=O)N1CCCCC12CCN(C(CC1CC1)C(=O)N[C@H](C#N)C[C@@H]1CCNC1=O)C2=O (single isomer, unassigned) [473 (Isomer 2)] | > 30 µM |  |
| COc1ccc2[nH]c(C(=O)N3CC4(CCCCC4)CC3C(=O)N[C@H](C#N)C[C@@H]3CCNC3=O)cc2c1Cl (single isomer, unassigned) [880 (Isomer 1)] | 10 to 30 µM |  |
| N#C[C@H](C[C@@H]1CCNC1=O)NC(=O)[C@H](CC1CC1)NC(=O)c1cc2c(Cl)cccc2[nH]1 [Compound 647, 4-chloro-N-[(1S)-2-[[(1S)-1-cyano-2-[(3S)-2-oxopyrrolidin-3-yl]ethyl]amino]-1-(cyclopropylmethyl)-2-oxo-ethyl]-1H-indole-2-carboxamide] | < 2 µM |  |
| COc1cccc2[nH]c(C(=O)N[C@@H](CC(C)C)C(=O)N[C@@H](C[C@@H]3CCNC3=O)C(C#N)OC(=O)NC(C)C)cc12 (some centres unmarked) [Compound 583] | > 30 µM |  |
| N#C[C@H](C[C@@H]1CCNC1=O)NC(=O)[C@H](CC1CC1)NC(=O)c1cc2ccc(Cl)cc2[nH]1 [Compound 529, 6-chloro-N-[(1S)-2-[[(1S)-1-cyano-2-[(3S)-2-oxopyrrolidin-3-yl]ethyl]amino]-1-(cyclopropylmethyl)-2-oxo-ethyl]-1H-indole-2-carboxamide] | < 2 µM |  |
| COc1cccc2[nH]c(C(=O)N[C@@H](CC3CC3)C(=O)N[C@@H](C#N)C[C@@H]3CCCNC3=O)cc12 (single isomer, unassigned) [491 (Isomer 2)] | > 30 µM |  |
| COc1ccc2[nH]c(C(=O)N[C@@H](CC(C)(C)C)C(=O)N[C@H](C#N)C[C@@H]3CCCNC3=O)cc2c1Cl [Compound 808, 4-chloro-N-[(1S)-1-[[(1S)-1-cyano-2-[(3S)-2-oxo-3-piperidyl]ethyl]carbamoyl]-3,3-dimethyl-butyl]-5-methoxy-1H-indole-2-carboxamide] | < 2 µM |  |
| Cc1cc(C(=O)N[C@H]2CC[C@@H]3SC[C@@H](C(=O)N[C@H](C#N)C[C@@H]4CCNC4=O)N3C2=O)no1 [Compound 459, N-((3R,6S,8aS)-3-(((S)-1-cyano-2-((S)-2-oxopyrrolidin-3-yl)ethyl)carbamoyl)-5-oxohexahydro-2H-thiazolo[3,2-a]pyridin-6-yl)-5-methylisoxazole-3-carboxamide] | > 30 µM |  |
| COc1cccc2[nH]c(C(=O)N3C[C@H](c4ccccc4)C[C@H]3C(=O)N[C@@H](C[C@@H]3CCNC3=O)C(O)C#N)cc12 (single isomer, unassigned) [345 (Isomer 1)] | < 2 µM |  |
| CCO[C@@H]1C[C@@H](C(=O)N[C@H](C#N)C[C@@H]2CCNC2=O)N(C(=O)c2cc3c(OC)cccc3[nH]2)C1 [Compound 409, (2S,4R)-N-[(1S)-1-cyano-2-[(3S)-2-oxopyrrolidin-3-yl]ethyl]-4-ethoxy-1-(4-methoxy-1H-indole-2-carbonyl)pyrrolidine-2-carboxamide] | > 30 µM |  |
| CN1CCCC[C@@]12CCN([C@H](CC1CC1)C(=O)N[C@H](C#N)C[C@@H]1CCNC1=O)C2=O [Compound 273B, (2R)-N-[(1S)-1-cyano-2-[(3S)-2-oxopyrrolidin-3-yl]ethyl]-3-cyclopropyl-2-[(5S)-6-methyl-1-oxo-2,6-diazaspiro[4.5]decan-2-yl]propanamide] | > 30 µM |  |
| N#C[C@H](C[C@@H]1CCNC1=O)NC(=O)C1CC2(CCCCC2)CN1C(=O)c1cc2ccc(Cl)c(Cl)c2[nH]1 (single isomer, unassigned) [986 (Isomer 2)] | > 30 µM |  |
| COCCOCCOc1cccc2[nH]c(C(=O)NC(CC(C)(C)C)C(=O)NC(C#N)CC3CCCNC3=O)cc12 (single isomer, unassigned) [875 (Isomer 2)] |  | < 2 µM |
| CC1(C)CCC(C[C@@H](C#N)NC(=O)[C@H](CC2CC2)NC(=O)c2cc3cccc(Cl)c3[nH]2)C(=O)N1 (single isomer, unassigned) [Compound 749 (Isomer 2)] | 2 to 10 µM |  |
| CC(C)(C)C[C@H](NC(=O)c1cc2c(Cl)cccc2[nH]1)C(=O)N[C@H](C#N)C[C@@H]1CCCNC1=O [Compound 793, 4-chloro-N-[(1S)-1-[[(1S)-1-cyano-2-[(3S)-2-oxo-3-piperidyl]ethyl]carbamoyl]-3,3-dimethyl-butyl]-1H-indole-2-carboxamide] | < 2 µM |  |
| COc1cccc2[nH]c(C(=O)N[C@@H](CC3CC3)C(=O)N[C@@]3(C#N)CCc4cccnc4C3)cc12 [Compound 279] | > 30 µM |  |
| N#C[C@]1(NC(=O)[C@H](CC2CC2)NC(=O)OCc2ccccc2)C[C@H]2CC[C@@H]1[C@H]1C(=O)NC(=O)[C@@H]21 (single isomer, unassigned) [495 (Isomer 1)] | > 30 µM |  |
